Consider 24 compounds from patent US20130252890A1, “6,7-DIHYDRO-5H-BENZO[7]ANNULENE DERIVATIVES, PROCESS FOR PREPARATION THEREOF, PHARMACEUTICAL PREPARATIONS COMPRISING THEM, AND THE USE THEREOF FOR PRODUCTION OF MEDICAMENTS” (BAYER INTELLECTUAL PROPERTY GMBH, priority 2010, published 2013).

The IC50 is the concentration that inhibits the measured activity by half.

The target of the assay is T1, oestrogen receptor (ER) (Homo sapiens, UniProt P03372).
T1 construct: These MVLN cells express, along with the functional oestrogen receptor (ER), a reporter construct; endogenous in cells; host or cells: MVLN cells (MCF7 derivative carrying a luciferase reporter construct)
T1 sequence (P03372 1-595): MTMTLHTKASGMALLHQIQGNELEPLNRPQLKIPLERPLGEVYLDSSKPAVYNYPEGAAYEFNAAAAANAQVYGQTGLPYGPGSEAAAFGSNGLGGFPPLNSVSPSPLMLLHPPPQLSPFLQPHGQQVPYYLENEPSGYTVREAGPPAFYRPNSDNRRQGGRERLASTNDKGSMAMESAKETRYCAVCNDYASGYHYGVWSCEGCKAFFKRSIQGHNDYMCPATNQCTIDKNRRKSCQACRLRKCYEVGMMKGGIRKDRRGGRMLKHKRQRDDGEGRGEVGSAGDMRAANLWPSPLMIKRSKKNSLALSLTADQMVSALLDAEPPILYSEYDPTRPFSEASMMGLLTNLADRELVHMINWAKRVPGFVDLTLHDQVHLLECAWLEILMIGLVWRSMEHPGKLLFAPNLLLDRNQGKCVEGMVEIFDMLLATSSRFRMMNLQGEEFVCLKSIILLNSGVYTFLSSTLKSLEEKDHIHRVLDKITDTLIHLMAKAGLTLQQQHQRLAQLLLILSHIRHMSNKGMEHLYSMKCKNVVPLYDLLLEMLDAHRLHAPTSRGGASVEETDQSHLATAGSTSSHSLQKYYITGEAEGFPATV
The experiment in a line: Anti-oestrogenic action in MVLN cells (inhibition of estradiol-induced luciferase). It is filed as cell-based. The note with it: inhibition of estradiol-induced luciferase signal, value of Ex. 44 is a mean value, read-out: Antioestrogenic action in vitro: MVLN transactivation antagonism IC50. The procedure, abridged:
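MVLN cells, MCF7 breast cancer derivatives carrying functional ER plus an ER-activated luciferase reporter, were treated with compounds in the presence of estradiol. Anti-oestrogenic activity taken as inhibition of the estradiol-induced luciferase signal.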
Turning to `O=S(=O)(CCCCNCCCCCCC1=C(c2ccc(F)cc2)CCCc2cc(O)ccc21)CCCC(F)(F)F` [Example 77, 8-(4-Fluorophenyl)-9-[6-({4-[(4,4,4-trifluorobutyl)sulphonyl]butyl}amino)hexyl]-6,7-dihydro-5H-benzo[7]annulen-3-ol], the IC50 stood at 10 nM. In the case of `CN(CCCCCCC1=C(c2ccc(F)cc2)CCCc2cc(O)ccc21)CCCSCCCC(F)(F)C(F)(F)F` [Example 78, 8-(4-Fluorophenyl)-9-[6-(methyl{3-[(4,4,5,5,5-pentafluoropentyl)sulphanyl]propyl}amino)hexyl]-6,7-dihydro-5H-benzo[7]annulen-3-ol] it was 31 nM. In the case of `CN(CCCCCCC1=C(c2ccc(F)cc2)CCCc2cc(O)ccc21)CCCS(=O)(=O)CCCCC(F)(F)C(F)(F)F` [Example 79, 8-(4-Fluorophenyl)-9-[6-(methyl{3-[(5,5,6,6,6-pentafluorohexyl)sulphonyl]propyl}amino)hexyl]-6,7-dihydro-5H-benzo[7]annulen-3-ol] it was 17 nM; in that of `O=C(CN(CCCCCCC1=C(c2ccc(F)cc2)CCCc2cc(O)ccc21)CCCCS(=O)(=O)CCCC(F)(F)F)OCc1ccccc1` [Example 81, Benzyl-N-{6-[8-(4-fluorophenyl)-3-hydroxy-6,7-dihydro-5H-benzo[7]annulen-9-yl]hexyl}-N-{4-[(4,4,4-trifluorobutyl)sulphonyl]butyl}glycinate], 40 nM. In the case of `COC(=O)CN(CCCCCCC1=C(c2ccc(F)cc2)CCCc2cc(O)ccc21)CCCCS(=O)(=O)CCCC(F)(F)F` [Example 82, Methyl-N-{6-[8-(4-fluorophenyl)-3-hydroxy-6,7-dihydro-5H-benzo[7]annulen-9-yl]hexyl}-N-{4-[(4,4,4-trifluorobutyl)sulphonyl]butyl}glycinate] it was 13 nM; in that of `COC(=O)CCN(CCCCCCC1=C(c2ccc(F)cc2)CCCc2cc(O)ccc21)CCCCS(=O)(=O)CCCC(F)(F)F` [Example 83, Methyl-N-{6-[8-(4-fluorophenyl)-3-hydroxy-6,7-dihydro-5H-benzo[7]annulen-9-yl]hexyl}-N-{4-[(4,4,4-trifluorobutyl)sulphonyl]butyl}-beta-alaninate], 13 nM. For `O=S(=O)(CCCN(CCCCCCC1=C(c2ccc(F)cc2)CCCc2c1ccc(O)c2F)CC(F)(F)F)CCCC(F)(F)C(F)(F)F` [Example 84, 4-Fluoro-8-(4-fluorophenyl)-9-{6-[{3-[(4,4,5,5,5-pentafluoropentyl)sulphonyl]propyl}(2,2,2-trifluoroethyl)amino]hexyl}-6,7-dihydro-5H-benzo[7]annulen-3-ol], the half-maximal inhibitory concentration (IC50) amounted to 252 nM. In the case of `O=S(=O)(CCCN(CCF)CCCCCCC1=C(c2ccc(F)cc2)CCCc2c1ccc(O)c2F)CCCC(F)(F)C(F)(F)F` [Example 85, 4-Fluoro-9-{6-[(2-fluoroethyl){3-[(4,4,5,5,5-pentafluoropentyl)sulphonyl]propyl}amino]hexyl}-8-(4-fluorophenyl)-6,7-dihydro-5H-benzo[7]annulen-3-ol] it was 51 nM; in that of `CN(CCCCCCC1=C(c2ccc(F)cc2)CCCc2c1ccc(O)c2F)CCCSCCCC(F)(F)C(F)(F)F` [Example 86, 4-Fluoro-8-(4-fluorophenyl)-9-[6-(methyl{3-[(4,4,5,5,5-pentafluoropentyl)sulphanyl]propyl}amino)hexyl]-6,7-dihydro-5H-benzo[7]annulen-3-ol], 25 nM; in that of `CN(CCCCCCC1=C(c2ccc(F)cc2)CCCc2c1ccc(O)c2F)CCCS(=O)(=O)CCCCC(F)(F)F` [Example 87, 4-Fluoro-8-(4-fluorophenyl)-9-[6-(methyl{3-[(5,5,5-trifluoropentyl)sulphonyl]propyl}amino)hexyl]-6,7-dihydro-5H-benzo[7]annulen-3-ol], 10 nM.

Turning to `COC(=O)CCCN(CCCCCCC1=C(c2ccc(F)cc2)CCCc2cc(O)ccc21)CCCCS(=O)(=O)CCCC(F)(F)F` [Example 88, Methyl-4-({6-[8-(4-fluorophenyl)-3-hydroxy-6,7-dihydro-5H-benzo[7]annulen-9-yl]hexyl}{4-[(4,4,4-trifluorobutyl)sulphonyl]butyl}amino)butanoate], the half-maximal inhibitory concentration (IC50) was determined as 24 nM. In the case of `CC(=O)N(CCCCCCC1=C(c2ccc(F)cc2)CCCc2cc(O)ccc21)CCCCS(=O)(=O)CCCC(F)(F)F` [Example 89, N-{6-[8-(4-Fluorophenyl)-3-hydroxy-6,7-dihydro-5H-benzo[7]annulen-9-yl]hexyl}-N-{4-[(4,4,4-trifluorobutyl)sulphonyl]butyl}acetamide] it was 54 nM; in that of `N#CCN(CCCCCCC1=C(c2ccc(F)cc2)CCCc2cc(O)ccc21)CCCCS(=O)(=O)CCCC(F)(F)F` [Example 90, ({6-[8-(4-Fluorophenyl)-3-hydroxy-6,7-dihydro-5H-benzo[7]annulen-9-yl]hexyl}{4-[(4,4,4-trifluorobutyl)sulphonyl]butyl}amino)acetonitrile], 14 nM; in that of `CS(=O)(=O)N(CCCCCCC1=C(c2ccc(F)cc2)CCCc2cc(O)ccc21)CCCCS(=O)(=O)CCCC(F)(F)F` [Example 91, N-{6-[8-(4-Fluorophenyl)-3-hydroxy-6,7-dihydro-5H-benzo[7]annulen-9-yl]hexyl}-N-{4-[(4,4,4-trifluorobutyl)sulphonyl]butyl}methanesulphonamide], 67 nM. As to `O=S(=O)(CCCCN(CCO)CCCCCCC1=C(c2ccc(F)cc2)CCCc2cc(O)ccc21)CCCC(F)(F)F` [Example 92, 8-(4-Fluorophenyl)-9-{6-[(2-hydroxyethyl){4-[(4,4,4-trifluorobutyl)sulphonyl]butyl}amino]hexyl}-6,7-dihydro-5H-benzo[7]annulen-3-ol], the half-maximal inhibitory concentration (IC50) was 5 nM. In the case of `C[C@H](O)CN(CCCCCCC1=C(c2ccc(F)cc2)CCCc2cc(O)ccc21)CCCCS(=O)(=O)CCCC(F)(F)F` [Example 93, 8-(4-Fluorophenyl)-9-[6-([(2S)-2-hydroxypropyl]{4-[(4,4,4-trifluorobutyl)sulphonyl]butyl}amino)hexyl]-6,7-dihydro-5H-benzo[7]annulen-3-ol] it was 5 nM. In the case of `O=C(O)CN(CCCCCCC1=C(c2ccc(F)cc2)CCCc2cc(O)ccc21)CCCCS(=O)(=O)CCCC(F)(F)F` [Example 94, N-{6-[8-(4-Fluorophenyl)-3-hydroxy-6,7-dihydro-5H-benzo[7]annulen-9-yl]hexyl}-N-{4-[(4,4,4-trifluorobutyl)sulphonyl]butyl}glycine] it was 21 nM; in that of `O=C(O)CCN(CCCCCCC1=C(c2ccc(F)cc2)CCCc2cc(O)ccc21)CCCCS(=O)(=O)CCCC(F)(F)F` [Example 95, N-{6-[8-(4-Fluorophenyl)-3-hydroxy-6,7-dihydro-5H-benzo[7]annulen-9-yl]hexyl}-N-{4-[(4,4,4-trifluorobutyl)sulphonyl]butyl}-beta-alanine], 19 nM; in that of `O=C(O)CCCN(CCCCCCC1=C(c2ccc(F)cc2)CCCc2cc(O)ccc21)CCCCS(=O)(=O)CCCC(F)(F)F` [Example 96, 4-({6-[8-(4-Fluorophenyl)-3-hydroxy-6,7-dihydro-5H-benzo[7]annulen-9-yl]hexyl}{4-[(4,4,4-trifluorobutyl)sulphonyl]butyl}amino)butanoic acid], 21 nM. In the case of `O=S(=O)(CCCN(CCO)CCCCCCC1=C(c2ccc(F)cc2)CCCc2cc(O)ccc21)CCCC(F)(F)F` [Example 97, 8-(4-Fluorophenyl)-9-{6-[(2-hydroxyethyl){3-[(4,4,4-trifluorobutyl)sulphonyl]propyl}amino]hexyl}-6,7-dihydro-5H-benzo[7]annulen-3-ol] it was 7 nM.

As to `C[C@@H](O)CN(CCCCCCC1=C(c2ccc(F)cc2)CCCc2cc(O)ccc21)CCCCS(=O)(=O)CCCC(F)(F)F` [Example 98], the 50% inhibitory concentration (IC50) came to 6 nM. In the case of `CN(CCCCCCC1=C(c2ccc(F)cc2)CCCc2cc(O)c(F)cc21)CCCS(=O)(=O)CCCC(F)(F)C(F)(F)F` [Example 99, 2-Fluoro-8-(4-fluorophenyl)-9-[6-(methyl{3-[(4,4,5,5,5-pentafluoropentyl)sulphonyl]propyl}amino)hexyl]-6,7-dihydro-5H-benzo[7]annulen-3-ol] it was 15 nM.

Turning to `O=S(=O)(CCCN(CCO)CCCCCCC1=C(c2ccc(F)cc2)CCCc2cc(O)c(F)cc21)CCCC(F)(F)C(F)(F)F` [Example 100, 2-Fluoro-8-(4-fluorophenyl)-9-{6-[(2-hydroxyethyl){3-[(4,4,5,5,5-pentafluoropentyl)sulphonyl]propyl}amino]hexyl}-6,7-dihydro-5H-benzo[7]annulen-3-ol], the IC50 was determined as 9 nM. In the case of `CN(CCCCCCC1=C(c2ccc(F)cc2)CCCc2cc(O)c(F)cc21)CCCCS(=O)(=O)CCCC(F)(F)F` [Example 101, 2-Fluoro-8-(4-fluorophenyl)-9-[6-(methyl{4-[(4,4,4-trifluorobutyl)sulphonyl]butyl}amino)hexyl]-6,7-dihydro-5H-benzo[7]annulen-3-ol] it was 6 nM.
